From PubChem BioAssay (NCI)
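All cell lines were grown in 96-well plates and treated with compound for 48 hours. Definition used: TGI = concentration required for complete inhibition of growth.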

Assays:
Assay in all cases: NCI-60 cell line screen, 48 h
[1] = tested on: HOP-62 NSCLC
[2] = tested on: U251 CNS
[3] = tested on: MALME-3M melanoma
[4] = tested on: UO-31 renal
[5] = tested on: 786-0 renal
[6] = tested on: K-562 leukemia
[7] = tested on: KM12 colon
[8] = tested on: NCI-H460 lung
[9] = tested on: OVCAR-4 ovarian
[10] = tested on: HCT-15 colon
[11] = tested on: SN12C renal

Row | SMILES | TGI [1] [µM] | TGI [2] [µM] | TGI [3] [µM] | TGI [4] [µM] | TGI [5] [µM] | TGI [6] [µM] | TGI [7] [µM] | TGI [8] [µM] | TGI [9] [µM] | TGI [10] [µM] | TGI [11] [µM]
1 | O=c1c(Cc2ccc(Cl)cc2)nnc2sc(-c3ccc(-c4ccc(Cl)cc4Cl)o3)nn12 | > 100 | > 100 | > 100 | > 100 | > 100 | > 100 | > 100 | > 100 | > 100 | > 100 | > 100
2 | C/C(=C/CC[C@]1(CO)CC[C@]2(C)[C@H](CC[C@@H]3[C@@]4(C)CC[C@H](OC5OC(CO)C(O)C(O)C5OC5OC(CO)C(O)C(O)C5O)C(C)(C)[C@@H]4CC[C@]32C)[C@H]1O)CO (stereo partly drawn) | > 100 | > 100 | > 100 | > 100 | > 100 | > 100 | > 100 | > 100 | > 100 | > 100 | > 100
3 | N/C1=C/C(=O)NC(=O)c2c(c3ccccc3oc2=O)C1 | > 100 | > 100 | > 100 | > 100 | > 100 | > 100 | > 100 | > 100 | > 100 | > 100 | > 100
4 | Cc1cccc(CC(Cc2ccc(C)cc2C(=O)O)C(=O)O)c1 (stereo not drawn) | > 100 | > 100 | > 100 | > 100 | > 100 | > 100 | > 100 | > 100 | > 100 | > 100 | > 100
5 | Cc1cc2nc3c(C#N)c4c(c(-c5ccc(Cl)cc5)n3c2cc1C)CCC4 | 46.2 | 78.4 | 46.8 | 39.4 | 35 | 53.6 | 47.8 | > 100 | 97.1 | 70.3 | 75.4
6 | COC(=O)Nc1nc2ccc(S(=O)(=O)N3CCOCC3)cc2[nH]1 | > 100 | > 100 | > 100 | > 100 | > 100 | > 100 | > 100 | > 100 | > 100 | > 100 | > 100
7 | Cc1ccc2c(c1)nc1n2C(N)=Nc2ccccc2S1 | > 100 | > 100 | > 100 | > 100 | > 100 | > 100 | > 100 | > 100 | > 100 | > 100 | > 100
8 | O=C1CSC(c2ccc(Cl)cc2Cl)N1c1ccc(Oc2ccc(Cl)cc2)c(Cl)c1 (stereo not drawn) | 59.8 | > 100 | 38.2 | 32.6 | 50.1 | > 100 | 50.1 | 84.4 | 78.6 | 66.4 | > 100
9 | CC(C)(NC(=O)OCc1ccccc1)C(=O)OC(=O)C(C)(C)NC(=O)OCc1ccccc1 | > 100 | > 100 | > 100 | > 100 | > 100 | > 100 | > 100 | > 100 | > 100 | > 100 | > 100
10 | NC(=S)N1N=C2c3ccccc3CC[C@H]2[C@@H]1c1ccc(Cl)cc1 | > 100 | > 100 | 52.6 | 66.8 | > 100 | 82.5 | > 100 | > 100 | > 100 | > 100 | > 100
11 | O=C(SCc1cccc2ccccc12)c1ccc(Cl)cc1 | > 100 | > 100 | > 100 | > 100 | > 100 | > 100 | > 100 | > 100 | > 100 | > 100 | > 100
12 | CC1OC(OC2C(O[C@H]3CC[C@@]4(C)C(=CC[C@H]5[C@@H]6C[C@@H]7O[C@]8(CC[C@@H](C)CO8)[C@@H](C)[C@@H]7[C@@]6(C)CC[C@@H]54)C3)OC(CO)C(O)C2O)C(O)C(O)C1O (stereo partly drawn) | 2.67 | 1.87 | 6.65 | 1.98 | 2.37 | > 25 | 2.19 | 2.34 | 2.47 | 5.21 | 3.27
13 | COC(=O)c1cc(OC)c(OC)c(OC)c1-c1cc2c(cc1C=O)OCO2 | > 10 | > 10 | > 10 | > 10 | > 10 | > 10 | > 10 | > 10 | > 10 | > 10 | > 10
14 | CC(C)=CC[C@]12CCN(C)[C@H]1N(S(=O)(=O)c1ccccc1)c1ccccc12 | > 77.6 | > 58.2 | > 100 | > 100 | > 90.9 | > 100 | > 100 | > 73.5 | > 100 | > 100 | > 100
15 | CC(=O)OCC1OC(n2c(Br)nc3c2c(=O)n(C)c(=O)n3C)C(OC(C)=O)C1OC(C)=O (stereo not drawn) | > 100 | > 100 | > 100 | > 100 | > 100 | > 100 | > 100 | > 100 | 83.6 | > 100 | > 100
16 | c1ccc2c(c1)cc1n2CCc2c-1[nH]c1ccccc21 | > 10 | > 10 | > 10 | > 10 | > 10 | > 10 | > 10 | > 10 | > 10 | > 10 | > 10
17 | CC(C)C1=CC(=O)[C@@](C)(C2[C@H](O)C[C@@]3(C)[C@@H]4CC=C5[C@@H](CC[C@@H](OC6OCC(O)C(O)C6OC6OC(C)C(O)C(O)C6O)C5(C)C)[C@]4(C)C(=O)C[C@]23C)O1 (stereo partly drawn) | > 100 | > 100 | > 100 | > 100 | > 100 | > 100 | > 100 | > 100 | > 100 | > 100 | > 100
18 | COc1cc(OC)c2c(c1)OC(c1cccnc1)C(c1ccccc1)C2=O (stereo not drawn) | > 100 | > 100 | > 100 | > 100 | > 100 | > 100 | > 100 | > 100 | > 100 | > 100 | > 100
